Test results published in patent US20050009776A1, “Method of treating atrial fibrillation or atrial flutter” (Aderis Pharmaceuticals, Inc., priority 2003, published 2005).

Experiments:
[1] = Example 2: safety (adverse events, blood pressure, clinical laboratory values); type: in vivo, human; conditions: for Diastolic BP Change from Baseline Post-treatment / Diastolic BP Change from Baseline Treatment / Systolic BP Change from Baseline Post-treatment / Systolic BP Change from Baseline Treatment: mean ± SD
Experimental: Each patient received 1 of 6 doses of DTI-0009 (0.25, 1.0, 2.5, 4.0, 10.0, or 25.0 μg/kg) diluted in normal saline or normal saline only (control). Study drug was administered as a 30-minute i.v. infusion at a rate of 1 mL/minute. Patients were enrolled in sequential dose groups, beginning with the lowest active dose group and continuing in increasing dose order; the final group received normal saline. The decision to proceed to the next highest dose group was based on the safety response in the previous dose group.
Electrophysiologic (EP), electrocardiogram (ECG), blood pressure measurements, and blood collection for clinical laboratory measurements were performed at baseline (−10 to 0 minutes), during treatment (between 20 and 30 minutes), and at 10 minutes post-treatment.
ECG measurements included PR interval, QRS complex duration, and QT interval. Efficacy was based on changes in EP and ECG parameters from baseline to the treatment period and to post treatment. Safety was based on the incidence of adverse events, blood pressure measurements, and clinical laboratory values.
The incidence of adverse events, blood pressure measurements, and clinical laboratory results were summarized by dose group. Adverse events were coded using the medical dictionary for regulatory activities (MedDRA version 3.0). Safety analyses included all patients who received any duration of study drug infusion.

[2] = system: atrioventricular (AV) node; experiment: Example 3: Phase I dose escalation, effects on AV node function; type: in vivo, human
Experimental: This study for determining the effects of DTI-0009 on atrioventricular (AV) node function enrolled 63 patients (19 women and 44 men; mean age 54) who were scheduled for a procedure other than AV node or slow pathway ablation. All patients had no greater than a first degree AV block and AV node Wenckebach Cycle Length of less than 500 msec. […] The study was a Phase I, multi-center, open-label, sequential dose escalation using DTI-0009 (0.25 μg/kg, 1.0 μg/kg, 2.5 μg/kg, 4.0 μg/kg, 10.0 μg/kg, and 25.0 μg/kg) or normal saline. Electrophysiologic studies (EPS) were performed at baseline, during infusion (20-30 min) and 10 minutes after discontinuation of DTI-0009 administration.

In the case of CCNC(=O)[C@H]1O[C@@H](n2cnc3c(NC4CCCC4)ncnc32)[C@H](O)[C@@H]1O [DTI-0009, N^6-cyclopentyl-5′-(N-ethyl)carboxamidoadenosine], the “Incidence of Adverse Events: General Disorders” value (from here on “Incidence … General Disorders”) ([1]; 4.0 μg/kg (n = 10)) is reported as 0, the “Incidence of Adverse Events: Groin pain/swelling” value (“Incidence … Groin pain/swelling” below) ([1]; 4.0 μg/kg (n = 10)) is reported as 0 and the “Diastolic BP Change from Baseline Post-treatment” value ([1]; 4.0 μg/kg) is reported as 0.6 ± 10.5 mmHg. The “Diastolic BP Change from Baseline Treatment” value ([1]; 4.0 μg/kg) was 3.3 ± 8.4 mmHg, the “Systolic BP Change from Baseline Post-treatment” value ([1]; 4.0 μg/kg) was 5.2 ± 10.2 mmHg and the “Systolic BP Change from Baseline Treatment” value ([1]; 4.0 μg/kg) was 3.8 ± 8.4 mmHg. The “Adverse Events Related to Study Drug: Cardiac Disorders (all)” value ([1]; 10.0 μg/kg (n = 12)) was 6 (50%), the “Adverse Events Related to Study Drug: General Disorders (all)” value ([1]; 10.0 μg/kg (n = 12)) was 1 (8%) and the “Incidence of Adverse Events Related to Study Drug” value ([1]; 10.0 μg/kg (n = 12)) was 7 (58%). For the same compound, the “Incidence of Adverse Events: Any Adverse Event” value ([1]; 10.0 μg/kg (n = 12)) was 8 (67%), the “Incidence of Adverse Events: Atrial fibrillation” value ([1]; 10.0 μg/kg (n = 12)) was 3 (25%) and the “Incidence of Adverse Events: Atrial flutter” value ([1]; 10.0 μg/kg (n = 12)) was 1 (8%). The “Incidence of Adverse Events: Atrial tachycardia” value ([1]; 10.0 μg/kg (n = 12)) was 0, the “Incidence of Adverse Events: Bradycardia” value ([1]; 10.0 μg/kg (n = 12)) was 1 (8%) and the “Incidence of Adverse Events: Cardiac Disorders” value ([1]; 10.0 μg/kg (n = 12)) was 6 (50%). The “Incidence of Adverse Events: Chest pain/tightness” value ([1]; 10.0 μg/kg (n = 12)) was 1 (8%), the “Incidence of Adverse Events: Conduction disorders” value ([1]; 10.0 μg/kg (n = 12)) was 1 (8%) and the “Incidence … General Disorders” value ([1]; 10.0 μg/kg (n = 12)) was 2 (17%). For the same compound, the “Incidence … Groin pain/swelling” value ([1]; 10.0 μg/kg (n = 12)) was 0, the “patients with severe adverse events” value ([1]; 10.0 μg/kg group) was 1 patient and the “Diastolic BP Change from Baseline Post-treatment” value ([1]; 10.0 μg/kg) was −7.2 ± 16.8 mmHg. For the same compound, the “Diastolic BP Change from Baseline Treatment” value ([1]; 10.0 μg/kg) was −3.2 ± 11.2 mmHg, the “Systolic BP Change from Baseline Post-treatment” value ([1]; 10.0 μg/kg) was −12.6 ± 20.4 mmHg and the “Systolic BP Change from Baseline Treatment” value ([1]; 10.0 μg/kg) was −3.2 ± 13.5 mmHg. For the same compound, the “Adverse Events Related to Study Drug: Cardiac Disorders (all)” value ([1]; 25.0 μg/kg (n = 3)) was 2 (66.7%), the “Adverse Events Related to Study Drug: General Disorders (all)” value ([1]; 25.0 μg/kg (n = 3)) was 3 (100%) and the “Incidence of Adverse Events Related to Study Drug” value ([1]; 25.0 μg/kg (n = 3)) was 3 (100%). The “Incidence of Adverse Events: Any Adverse Event” value ([1]; 25.0 μg/kg (n = 3)) was 3 (100%), the “Incidence of Adverse Events: Atrial fibrillation” value ([1]; 25.0 μg/kg (n = 3)) was 1 (33%) and the “Incidence of Adverse Events: Atrial flutter” value ([1]; 25.0 μg/kg (n = 3)) was 0. For the same compound, the “Incidence of Adverse Events: Atrial tachycardia” value ([1]; 25.0 μg/kg (n = 3)) was 1 (33%), the “Incidence of Adverse Events: Bradycardia” value ([1]; 25.0 μg/kg (n = 3)) was 1 (33%) and the “Incidence of Adverse Events: Cardiac Disorders” value ([1]; 25.0 μg/kg (n = 3)) was 2 (66.7%). For the same compound, the “Incidence of Adverse Events: Chest pain/tightness” value ([1]; 25.0 μg/kg (n = 3)) was 3 (100%), the “Incidence of Adverse Events: Conduction disorders” value ([1]; 25.0 μg/kg (n = 3)) was 0 and the “Incidence … General Disorders” value ([1]; 25.0 μg/kg (n = 3)) was 3 (100%). The “Incidence … Groin pain/swelling” value ([1]; 25.0 μg/kg (n = 3)) was 0, the “patients with severe adverse events” value ([1]; 25.0 μg/kg group) was 2 patients and the “patients who did not complete study drug infusion due to adverse events” value ([1]; 25.0 μg/kg group, chest pain, severe chest pain, chest tightness and atrial fibrillation) was “Three patients”. For the same compound, the “Diastolic BP Change from Baseline Post-treatment” value ([1]; 25.0 μg/kg) was 1.0 ± 8.0 mmHg, the “Diastolic BP Change from Baseline Treatment” value ([1]; 25.0 μg/kg) was 7.5 ± 2.1 mmHg and the “Systolic BP Change from Baseline Post-treatment” value ([1]; 25.0 μg/kg) was 6.7 ± 8.1 mmHg. The “Systolic BP Change from Baseline Treatment” value ([1]; 25.0 μg/kg) was 23.0 ± 2.8 mmHg, the “changes in blood pressure or clinical laboratory values” ([1]; any patient during the study) was “no clinically significant changes” and the “AERP Change from Baseline” value ([2]; 4.0 μg/kg (n = 9), ns) was “+10 msec (ns)”. The “AH Interval Change from Baseline” value ([2]; 4.0 μg/kg (n = 9), ns) was “+9 msec (ns)”, the “AVNERP Change from Baseline” value ([2]; 4.0 μg/kg (n = 9), ns) was “+73 msec (ns)” and the “Wenkebach Cycle Length Change from Baseline” value (“Wenkebach Cycle Length Change” for short) ([2]; 4.0 μg/kg (n = 9), ns) was “+60 msec (ns)”. The “HR at 250 msec pacing Change from Baseline” value (from here on “HR at 250 msec pacing Change”) ([2]; 4.0 μg/kg (n = 9), p = 0.008) was −49 bpm, the “AVNERP Change from Baseline” value ([2]; 10.0 μg/kg (n = 8), p = 0.001) was “+248 msec” and the “HR at 250 msec pacing Change” value ([2]; 10.0 μg/kg (n = 8), p = 0.001) was −51 bpm. For the same compound, the “Wenkebach Cycle Length Change” value ([2]; 10.0 μg/kg (n = 8), p = 0.001) was “+198 msec”, the “AH Interval Change from Baseline” value ([2]; 10.0 μg/kg (n = 8), p = 0.004) was “+24 msec” and the “AERP Change from Baseline” value ([2]; 10.0 μg/kg (n = 8), p = 0.035) was -14 ms. For the same compound, the complete heart block ([2]; 10.0 μg/kg dose) was “occurred in one patient”, the “AERP Change from Baseline” value ([2]; 25.0 μg/kg (n = 2), ns) was “+10 msec (ns)” and the “AH Interval Change from Baseline” value ([2]; 25.0 μg/kg (n = 2), ns) was “+14 msec (ns)”. The “HR at 250 msec pacing Change” value ([2]; 25.0 μg/kg (n = 2), p = 0.004) was −45 bpm, the “AVNERP Change from Baseline” value ([2]; 25.0 μg/kg (n = 2), p = 0.013) was “+185 msec” and the “Wenkebach Cycle Length Change” value ([2]; 25.0 μg/kg (n = 2), p = 0.035) was “+140 msec”. For the same compound, the “transient, severe, non-ischemic chest pain reported as serious adverse events” value ([2]; 25.0 μg/kg, three patients dosed) was “two of these patients”, the “effects on AV node variables at low doses” value ([2]; doses up to 2.5 μg/kg) was “negligible effects” and the tolerability ([2]; up to a dose of 10.0 μg/kg) was “well tolerated”.
